Active and inactive are the calls of the source. The calls are words filed in the database; no cut-off is given here.
Legend:
Assay type in all cases: functional
HeLa [1] = assay: Growth inhibition of human HeLa cells after 48 hrs by sulforhodamine B assay
WiDr [2] = assay: Growth inhibition of human WiDr cells after 48 hrs by sulforhodamine B assay
SW1573 [3] = assay: Growth inhibition of human SW1573 cells after 48 hrs by sulforhodamine B assay; settings: SW1573, 48 h
HBL-100 = assay: Growth inhibition of human HBL100 cells after 48 hrs by sulforhodamine B assay; settings: HBL-100, 48 h
T47D [4] = assay: Growth inhibition of human T47D cells after 48 hrs by sulforhodamine B assay
A2780 = assay: Growth inhibition of human A2780 cells after 48 hrs by sulforhodamine B assay; settings: A2780, 48 h
SW1573 [5] = assay: Cell cycle arrest in human SW1573 cells assessed as accumulation at G2/M phase at 35 uM after 24 hrs by propidium iodide staining-based FACS analysis
T47D [6] = assay: Cell cycle arrest in human T47D cells assessed as decrease in accumulation at S phase at 35 uM after 24 hrs by propidium iodide staining-based FACS analysis
T47D [7] = assay: Cell cycle arrest in human T47D cells assessed as accumulation at G2/M phase at 35 uM after 24 hrs by propidium iodide staining-based FACS analysis
WiDr [8] = assay: Cell cycle arrest in human WiDr cells assessed as decrease in accumulation at S phase at 35 uM after 24 hrs by propidium iodide staining-based FACS analysis
HeLa [9] = assay: Cell cycle arrest in human HeLa cells assessed as accumulation at S phase at 35 uM after 24 hrs by propidium iodide staining-based FACS analysis
SW1573 [10] = assay: Cell cycle arrest in human SW1573 cells assessed as accumulation at G2/M phase at 15 uM after 24 hrs by propidium iodide staining-based FACS analysis
HeLa [11] = assay: Cell cycle arrest in human HeLa cells assessed as accumulation at G2/M phase at 15 uM after 24 hrs by propidium iodide staining-based FACS analysis
WiDr [12] = assay: Cell cycle arrest in human WiDr cells assessed as accumulation at G2/M phase at 35 uM after 24 hrs by propidium iodide staining-based FACS analysis
HeLa [13] = assay: Cell cycle arrest in human HeLa cells assessed as decrease in accumulation at G0/G1 phase at 35 uM after 24 hrs by propidium iodide staining-based FACS analysis
SW1573 [14] = assay: Cell cycle arrest in human SW1573 cells assessed as decrease in accumulation at G0/G1 phase at 35 uM after 24 hrs by propidium iodide staining-based FACS analysis
HeLa [15] = assay: Cell cycle arrest in human HeLa cells assessed as decrease in accumulation at S phase at 15 uM after 24 hrs by propidium iodide staining-based FACS analysis
SW1573 [16] = assay: Cell cycle arrest in human SW1573 cells assessed as accumulation at S phase at 35 uM after 24 hrs by propidium iodide staining-based FACS analysis
SW1573 [17] = assay: Cell cycle arrest in human SW1573 cells assessed as decrease in accumulation at S phase at 15 uM after 24 hrs by propidium iodide staining-based FACS analysis
WiDr [18] = assay: Cell cycle arrest in human WiDr cells assessed as increase in accumulation at sub G0 phase at 15 to 35 uM treated for 24 hrs measured after 24 hrs of drug washout by propidium iodide staining-based FACS analysis
HeLa [19] = assay: Cell cycle arrest in human HeLa cells assessed as accumulation at G2/M phase at 35 uM after 24 hrs by propidium iodide staining-based FACS analysis
T47D [20] = assay: Cell cycle arrest in human T47D cells assessed as increase in accumulation at sub G0 phase at 15 to 35 uM treated for 24 hrs measured after 24 hrs of drug washout by propidium iodide staining-based FACS analysis

Row | SMILES | GI50 (HeLa [1]; read-out: GI50) [µM] | GI50 (WiDr [2]; read-out: GI50) [µM] | GI50 (SW1573 [3]; read-out: GI50) [µM] | GI50 (HBL-100; read-out: GI50) [µM] | pGI50 (T47D [4]) | GI50 (T47D [4]; read-out: GI50) [µM] | GI50 (A2780; read-out: GI50) [µM] | GI50 (HeLa [1]; read-out: pGI50 (converted)) [µM] | GI50 (WiDr [2]; read-out: pGI50 (converted)) [µM] | GI50 (SW1573 [3]; read-out: pGI50 (converted)) [µM] | GI50 (HBL-100; read-out: pGI50 (converted)) [µM] | GI50 (A2780; read-out: pGI50 (converted)) [µM] | also measured
1 | C=C(C(=O)O)[C@@H]1CC[C@@]2(C)CCCC(C)=C2C1 | > 100 | > 100 | > 100 | > 100 | 4 | > 100 | > 100 |  |  |  |  |  | pGI50 (HeLa [1]): 4; pGI50 (WiDr [2]): 4; pGI50 (SW1573 [3]): 4; pGI50 (HBL-100): 4; pGI50 (A2780): 4
2 | C=C(C(=O)OC)[C@@H]1CCC2=C[C@H](O)C[C@H](C)[C@@]2(C)C1 | 29 | 17 | 5 | 12 |  | 11 | 11 | 4.54 | 4.77 | 5.3 | 4.91 | 4.95 | Activity (SW1573 [5]): Active; Activity (T47D [6]): Active; Activity (T47D [7]): Active; Activity (WiDr [8]): Active; Activity (HeLa [9]): Active; Activity (SW1573 [10]): Active; Activity (HeLa [11]): Active; Activity (WiDr [12]): Active; Activity (HeLa [13]): Active; GI50 (T47D [4]; read-out: pGI50 (converted)): 4.97 µM; Activity (SW1573 [14]): Active; Activity (HeLa [15]): Active; Activity (SW1573 [16]): Active; Activity (SW1573 [17]): Active; Activity (WiDr [18]): Active; Activity (HeLa [19]): Active; Activity (T47D [20]): Active
3 | C=C(C(=O)OC)[C@@H]1CC[C@@]2(C)CCCC(C)=C2C1 | 13 | 38 | 18 | 14 | 4.48 | 35 | 18 | 4.88 | 4.45 | 4.74 | 4.86 | 4.74 | 
4 | CC[C@@]1(O)C(=O)OCc2c1cc1n(c2=O)Cc2cc3ccccc3nc2-1 [CAMPTOTHECIN] | 1.3 | 1.7 | 0.21 | 0.23 |  | 1.9 | 0.46 |  |  |  |  |  | 
5 | O=c1[nH]cc(F)c(=O)[nH]1 [FLUOROURACIL] | 19 | 50 | 4.1 | 5.5 |  | 29 | 4.4 |  |  |  |  |  | 

Source: ChEMBL document CHEMBL1152527, “Tessaric acid derivatives induce G2/M cell cycle arrest in human solid tumor cell lines” (2009)
